Measurements published in PubChem BioAssay AID248 (DTP/NCI, 2004).
Several values for one entry are separate records, joined by “and”; a condition that tells them apart may be missing. Equal entries are not always repeated. Toxic doses and inconclusive results are not listed. No stated cut-off is given here; in the data, active means T/C of 150% or more; inactive means T/C below 125%.

System: L1210 leukemia ip in BDF1 mice, survival T/C
Experiment: NCI In Vivo Anticancer Drug Screen. Data for tumor model L1210 Leukemia (intraperitoneal) in B6D2F1 (BDF1) mice
Settings: endpoint: mean survival time, higher = longer survival
In short: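 In this screen, tumor-bearing mice given compound are compared to those given vehicle, and their survival values are reported as a treated-to-control quotient.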

[1] = dose: 100.0 mg/kg/injection, schedule: Q01DX009 (ip), vehicle: saline with Tween-80
[2] = dose: 100.0 mg/kg/injection, schedule: Q01DX009 (ip), vehicle: Klucel (hydroxypropylcellulose) (HPC)
[3] = dose: 100.0 mg/kg/injection, schedule: Q04DX003 (ip), vehicle: Klucel (hydroxypropylcellulose) (HPC)
[4] = dose: 200.0 mg/kg/injection, schedule: Q04DX003 (ip), vehicle: Klucel (hydroxypropylcellulose) (HPC)
[5] = dose: 400.0 mg/kg/injection, schedule: Q04DX003 (ip), vehicle: Klucel (hydroxypropylcellulose) (HPC)
[6] = dose: 100.0 mg/kg/injection, schedule: Q01DX001 (ip), vehicle: saline
[7] = dose: 200.0 mg/kg/injection, schedule: Q01DX001 (ip), vehicle: saline
[8] = dose: 400.0 mg/kg/injection, schedule: Q01DX001 (ip), vehicle: saline
[9] = dose: 100.0 mg/kg/injection, schedule: Q01DX009 (ip), vehicle: saline
[10] = dose: 200.0 mg/kg/injection, schedule: Q01DX009 (ip), vehicle: saline

Measured: T/C

CC(Cl)CNC(=O)Nc1cccc2c1CCCC2 (configuration not stated)
inactive: dose: 50.0 mg/kg/injection, schedule: Q01DX001 (ip), vehicle: saline with Tween-80 103 % of control | dose: 100.0 mg/kg/injection, schedule: Q01DX001 (ip), vehicle: saline with Tween-80 100 % of control | [1] 96 % of control | dose: 200.0 mg/kg/injection, schedule: Q01DX001 (ip), vehicle: saline with Tween-80 94 % of control | dose: 200.0 mg/kg/injection, schedule: Q01DX009 (ip), vehicle: saline with Tween-80 95 % of control | dose: 400.0 mg/kg/injection, schedule: Q01DX001 (ip), vehicle: saline with Tween-80 91 % of control | dose: 400.0 mg/kg/injection, schedule: Q01DX009 (ip), vehicle: saline with Tween-80 90 % of control

Nc1cccc(CNC(=O)COc2cccc(Cl)c2)c1
inactive: dose: 50.0 mg/kg/injection, schedule: Q01DX009 (ip), vehicle: Klucel (hydroxypropylcellulose) (HPC) 116 % of control | [2] 109 % of control | [3] 96 % of control | dose: 200.0 mg/kg/injection, schedule: Q01DX009 (ip), vehicle: Klucel (hydroxypropylcellulose) (HPC) 120 % of control | [4] 96 % of control | [5] 104 % of control

CCc1nc(=O)c2ccccc2n1C
inactive: dose: 1.5 mg/kg/injection, schedule: Q01DX001 (ip), vehicle: saline 100 % of control | dose: 3.0 mg/kg/injection, schedule: Q01DX001 (ip), vehicle: saline 95 % of control | dose: 6.0 mg/kg/injection, schedule: Q01DX001 (ip), vehicle: saline 107 % of control

CC1C2CC3C(OC(=O)C13C)C2I (configuration not stated)
inactive: [6] 110 % of control | [7] 96 % of control | [8] 113 % of control

COc1cccc2c1CCC1=C2CC=C2CC3(CCC21C)OCCO3 (configuration not stated)
inactive: dose: 100.0 mg/kg/injection, schedule: Q01DX009 (sc), vehicle: steriod suspending solution 91 % of control | dose: 200.0 mg/kg/injection, schedule: Q01DX009 (sc), vehicle: steriod suspending solution 101 % of control | dose: 400.0 mg/kg/injection, schedule: Q01DX009 (sc), vehicle: steriod suspending solution 106 % of control

CCCCCCCNC
inactive: dose: 50.0 mg/kg/injection, schedule: Q01DX001 (ip), vehicle: carboxymethylcellulose (CMC) 99 % of control | dose: 100.0 mg/kg/injection, schedule: Q01DX001 (ip), vehicle: carboxymethylcellulose (CMC) 99 % of control | dose: 200.0 mg/kg/injection, schedule: Q01DX001 (ip), vehicle: carboxymethylcellulose (CMC) 96 % of control

CN(C)N=Nc1ccccc1Cl
inactive: dose: 25.0 mg/kg/injection, schedule: Q01DX009 (ip), vehicle: saline with Tween-80 106 % of control | dose: 50.0 mg/kg/injection, schedule: Q01DX009 (ip), vehicle: saline with Tween-80 120 % of control | dose: 50.0 mg/kg/injection, schedule: Q04DX003 (ip), vehicle: Klucel (hydroxypropylcellulose) (HPC) 97 % of control | [2] 95 % of control | [1] 123 % of control | [3] 102 % of control and 103 % of control | [4] 103 % of control and 111 % of control | [5] 113 % of control

O=[N+]([O-])c1cc(Cl)ccc1S(=O)(=O)/C=C/c1ccccc1
inactive: [6] 104 % of control | [9] 94 % of control | [7] 104 % of control | [10] 96 % of control | [8] 100 % of control | dose: 400.0 mg/kg/injection, schedule: Q01DX009 (ip), vehicle: saline 91 % of control

C(CSC1=NCCN1)CSC1=NCCN1
inactive: dose: 6.25 mg/kg/injection, schedule: Q01DX009 (ip), vehicle: saline 105 % of control | dose: 12.5 mg/kg/injection, schedule: Q01DX009 (ip), vehicle: saline 111 % of control | dose: 25.0 mg/kg/injection, schedule: Q01DX009 (ip), vehicle: saline 107 % of control | dose: 50.0 mg/kg/injection, schedule: Q01DX009 (ip), vehicle: saline 117 % of control | [9] 115 % of control | dose: 100.0 mg/kg/injection, schedule: Q04DX003 (ip), vehicle: saline 100 % of control | [10] 115 % of control | dose: 200.0 mg/kg/injection, schedule: Q04DX003 (ip), vehicle: saline 108 % of control
